According to patent US9909107B2, “Brassica AHAS genes and gene alleles that provide resistance to imidazolinone herbicides” (priority 2004, dated 2018):
Several values for one entry are separate records, joined by “and”; a condition that tells them apart may be missing. Equal entries are not always repeated.

Legend:
[1] = molecular target: T1, AHAS enzyme in leaf discs of PM1 (mutation affecting the AHAS1 gene in the C genome) (Brassica napus, UniProt P27818, S638N); assay: AHAS activity assay of leaf discs, line PM1; type: biochemical; settings: for tolerance provided by the mutation (in words): PM1 mutation
T1 construct: Relative AHAS activity of leaf discs exposed; from tissue; host or cells: leaf discs of B. napus line PM1
T1 sequence (P27818 83-655 S638N): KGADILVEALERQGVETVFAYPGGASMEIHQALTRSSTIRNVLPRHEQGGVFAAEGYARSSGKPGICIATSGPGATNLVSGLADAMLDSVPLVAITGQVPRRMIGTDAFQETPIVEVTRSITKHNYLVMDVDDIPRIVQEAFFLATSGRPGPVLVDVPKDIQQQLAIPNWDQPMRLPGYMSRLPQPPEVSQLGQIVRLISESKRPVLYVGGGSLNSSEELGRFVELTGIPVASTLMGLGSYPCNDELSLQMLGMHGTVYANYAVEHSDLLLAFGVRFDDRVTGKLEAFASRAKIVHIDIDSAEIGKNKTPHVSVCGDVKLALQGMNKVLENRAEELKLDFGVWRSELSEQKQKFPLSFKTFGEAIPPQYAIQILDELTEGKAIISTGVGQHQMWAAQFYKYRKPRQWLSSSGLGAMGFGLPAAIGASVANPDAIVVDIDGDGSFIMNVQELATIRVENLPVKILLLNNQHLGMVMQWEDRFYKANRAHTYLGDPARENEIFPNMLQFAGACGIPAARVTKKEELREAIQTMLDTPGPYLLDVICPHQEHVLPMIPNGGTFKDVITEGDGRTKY
Experimental: (§1) Leaf discs were removed from seedling leaves of J04E-0044 and subjected to an assay of AHAS activity, as described by Singh et al. (Anal. Biochem. 171: 173-179, 1988). The assay measures AHAS activity by estimating the amount of product, acetolactate, after conversion by decarboxylation in the presence of acid to acetoin. The assay compares the AHAS activity in two leaf discs. The control leaf disc was incubated in 10 mM phosphate buffer (pH 6.0) containing 50 mM pyruvate, 500 uM cyclopropane dicarboxylic acid (CPCA), 10% M&S salts and 0.5% alanine. The other leaf disc was in the same buffer in the presence of 2.5 uM imazamox, an imidazolinone herbicide. The herbicide normally binds to the AHAS enzyme and inhibits activity. The incubations were carried out at 22° C. for 16 hrs followed by measuring the absorbance at A530 nm. A completely herbicide susceptible plant will have an AHAS activity level near zero when exposed to an inhibitory herbicide, while a tolerant plant will have AHAS activity nearly equal to that of the control. A plant with a mutated AHAS gene in one genome but not the other will have intermediate AHAS activity in the present of enzyme inhibitor. The procedure was modified to include the addition of cydopropane dicarboxylic acid (CPCA), which prevents the further conversion of acetolactate to valine and leucine. In addition to an imidazolinone herbicide as an inhibitor, a sulfonylurea herbicide (chlorsulfuron) was also used on separate leaf discs to test for cross-tolerance in the same way except that 0.2 uM chlorsulfuron was used instead of 2.5 uM imazamox. In this table, the line PM1 is a B. napus variety with a mutation affecting the AHAS1 gene in the C genome only and PM2 is a B. napus variety with a mutation in the AHAS3 gene, located in the A genome. Susceptible check is a commercial B. juncea variety.

[2] = molecular target: T2, AHAS enzyme in leaf discs of PM2 (mutation in the AHAS3 gene, A genome) (Brassica napus, UniProt P27819, W556L); assay: AHAS activity assay of leaf discs, line PM2; type: biochemical; settings: for tolerance provided by the mutation (in words): PM2 mutation in the A genome
T2 construct: Relative AHAS activity of leaf discs exposed; from tissue; host or cells: leaf discs of B. napus line PM2
T2 sequence (P27819 70-652 W556L): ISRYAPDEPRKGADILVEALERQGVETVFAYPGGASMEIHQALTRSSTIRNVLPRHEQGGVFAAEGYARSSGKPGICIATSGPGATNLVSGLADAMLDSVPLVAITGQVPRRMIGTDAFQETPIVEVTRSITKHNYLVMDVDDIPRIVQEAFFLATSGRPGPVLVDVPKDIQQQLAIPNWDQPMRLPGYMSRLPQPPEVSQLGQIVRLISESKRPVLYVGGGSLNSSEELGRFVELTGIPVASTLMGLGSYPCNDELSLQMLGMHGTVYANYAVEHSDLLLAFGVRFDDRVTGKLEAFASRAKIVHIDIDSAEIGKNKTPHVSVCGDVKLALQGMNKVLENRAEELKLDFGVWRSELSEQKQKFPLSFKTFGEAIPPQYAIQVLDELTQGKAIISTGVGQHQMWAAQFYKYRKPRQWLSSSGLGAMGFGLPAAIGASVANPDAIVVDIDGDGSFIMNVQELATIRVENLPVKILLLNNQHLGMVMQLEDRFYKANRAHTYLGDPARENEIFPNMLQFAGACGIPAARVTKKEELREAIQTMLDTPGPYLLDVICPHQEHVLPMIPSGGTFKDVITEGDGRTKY
Experimental: as §1

[3] = tested on: AHAS enzyme in leaf discs of J04E-0044 (BjAHAS-bR mutant allele); assay: AHAS activity assay of leaf discs, line J04E-0044; type: biochemical, Brassica juncea; settings: for tolerance provided by the mutation (in words): mutation in B. juncea variety J04E-0044
Experimental: as §1

[4] = tested on: AHAS enzyme in leaf discs of Susceptible check (B. juncea variety 'Arid'); assay: AHAS activity assay of leaf discs, susceptible check; type: biochemical, Brassica juncea
Experimental: as §1

Row | Compound | tolerance provided by the mutation (in words) [1] | tolerance provided by the mutation (in words) [2] | tolerance provided by the mutation (in words) [3] | Relative AHAS activity with chlorsulfuron (0-1) ([4]; Susceptible check leaf disc, 0.2 uM chlorsulfuron vs control disc, 22° C., 16 hrs, scale 0-1) | Relative AHAS activity with imidazolinone (0-1) ([1]; PM1 leaf disc, 2.5 uM imazamox vs control disc, 22° C., 16 hrs, scale 0-1, assays #1-3) | Relative AHAS activity with imidazolinone (0-1) ([2]; PM2 leaf disc, 2.5 uM imazamox vs control disc, 22° C., 16 hrs, scale 0-1, assays #1-2) | relative AHAS activity ([3]; J04E-0044, imidazolinone as AHAS activity inhibitor (Table 1)) | Relative AHAS activity with imidazolinone (0-1) ([3]; J04E-0044 leaf disc, 2.5 uM imazamox vs control disc, 22° C., 16 hrs, scale 0-1, assays #1-3) | AHAS activity in the presence of an imidazolinone herbicide relative to without the inhibitor ([4]; Arid (susceptible check)) | Relative AHAS activity with imidazolinone (0-1) ([4]; Susceptible check leaf disc, 2.5 uM imazamox vs control disc, 22° C., 16 hrs, scale 0-1)
1 | COc1nc(C)nc(NC(=O)NS(=O)(=O)c2ccccc2Cl)n1 [chlorsulfuron] | no tolerance | tolerance | little tolerance | 0.029 | – | – | – | – | – | –
2 | COCc1cnc(C2=NC(C)(C(C)C)C(=O)N2)c(C(=O)O)c1 (stereo not shown) [imidazolinone, imazamox] | less tolerance | tolerance | tolerance equal to that of PM2 | – | 0.256 and 0.292 and 0.276 | 0.607 and 0.722 | 70% and 79% and 91% | 0.703 and 0.793 and 0.919 | less than 2% | 0.018
